Columns and labels:
Test in all cases: KINOMEscan competition binding
Settings in all cases: compound 10.0 µM
MELK (human) = MELK (human) (UniProt Q14680)
MAP2K3 (human) = MAP2K3 (human) (UniProt P46734)
PAK7 (human) = PAK7 (human) (UniProt Q9P286)
FLT3 (human) = FLT3 (human) (UniProt P36888)
RPS6KA4 KD2 (human) = RPS6KA4 KD2 (human) (UniProt O75676)
TYRO3 (human) = TYRO3 (human) (UniProt Q06418)
ERBB3 (human) = ERBB3 (human) (UniProt P21860)
STK3 (human) = STK3 (human) (UniProt Q13188)
RPS6KA6 KD2 (human) = RPS6KA6 KD2 (human) (UniProt Q9UK32)
PTK2B (human) = PTK2B (human) (UniProt Q14289)
PAK1 (human) = PAK1 (human) (UniProt Q13153)
Chain of PAK1 (human) (Q13153 whole entry, looked up): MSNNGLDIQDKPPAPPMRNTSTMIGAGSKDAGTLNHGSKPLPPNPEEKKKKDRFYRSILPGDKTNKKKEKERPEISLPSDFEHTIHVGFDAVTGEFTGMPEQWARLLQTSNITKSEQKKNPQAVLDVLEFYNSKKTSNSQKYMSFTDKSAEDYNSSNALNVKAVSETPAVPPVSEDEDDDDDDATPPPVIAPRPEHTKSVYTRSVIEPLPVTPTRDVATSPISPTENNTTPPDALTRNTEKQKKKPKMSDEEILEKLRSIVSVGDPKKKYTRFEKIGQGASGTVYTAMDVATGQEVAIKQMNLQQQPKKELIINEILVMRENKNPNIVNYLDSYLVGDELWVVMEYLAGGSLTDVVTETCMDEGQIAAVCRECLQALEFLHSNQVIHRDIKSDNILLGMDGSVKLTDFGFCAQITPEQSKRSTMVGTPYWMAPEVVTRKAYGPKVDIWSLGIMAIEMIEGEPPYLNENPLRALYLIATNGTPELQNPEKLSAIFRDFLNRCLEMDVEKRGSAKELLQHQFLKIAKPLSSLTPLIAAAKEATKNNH

STK39 (human) = STK39 (human) (UniProt Q9UEW8)
ADCK3 (human) = ADCK3 (human) (UniProt Q8NI60)
[1] = tested on: FLT3 (human), P36888 [D835H]
DMPK (human) = DMPK (human) (UniProt Q09013)
[2] = tested on: ABL1 (human), P00519 [Y253F]
AXL (human) = AXL (human) (UniProt P30530)
STK10 (human) = STK10 (human) (UniProt O94804)
PLK4 (human) = PLK4 (human) (UniProt O00444)
Chain of PLK4 (human) (O00444 whole entry, looked up): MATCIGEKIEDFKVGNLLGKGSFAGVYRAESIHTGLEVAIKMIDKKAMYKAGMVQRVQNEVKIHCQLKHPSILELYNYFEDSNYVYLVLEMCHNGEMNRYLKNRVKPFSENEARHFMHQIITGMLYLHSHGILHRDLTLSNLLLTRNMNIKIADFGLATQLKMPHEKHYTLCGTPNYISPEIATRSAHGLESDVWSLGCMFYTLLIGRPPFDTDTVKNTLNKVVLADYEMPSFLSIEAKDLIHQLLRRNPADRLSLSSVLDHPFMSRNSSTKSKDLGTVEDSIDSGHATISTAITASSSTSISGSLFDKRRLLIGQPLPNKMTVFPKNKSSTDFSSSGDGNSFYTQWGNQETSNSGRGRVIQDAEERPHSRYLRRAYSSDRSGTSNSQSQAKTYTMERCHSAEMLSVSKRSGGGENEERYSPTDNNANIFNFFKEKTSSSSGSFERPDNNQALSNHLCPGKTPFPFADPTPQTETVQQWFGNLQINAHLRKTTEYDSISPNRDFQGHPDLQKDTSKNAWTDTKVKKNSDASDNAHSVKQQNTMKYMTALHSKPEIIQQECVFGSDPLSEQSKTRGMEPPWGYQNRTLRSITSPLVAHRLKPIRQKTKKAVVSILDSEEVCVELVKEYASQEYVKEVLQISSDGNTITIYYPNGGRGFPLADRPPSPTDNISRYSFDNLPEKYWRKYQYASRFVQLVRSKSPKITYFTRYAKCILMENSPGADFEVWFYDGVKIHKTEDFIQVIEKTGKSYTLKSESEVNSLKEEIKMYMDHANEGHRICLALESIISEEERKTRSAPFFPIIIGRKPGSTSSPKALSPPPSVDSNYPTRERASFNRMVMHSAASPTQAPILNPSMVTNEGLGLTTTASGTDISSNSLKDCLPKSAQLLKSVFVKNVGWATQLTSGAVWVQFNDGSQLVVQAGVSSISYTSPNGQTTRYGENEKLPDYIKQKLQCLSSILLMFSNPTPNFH

MATK (human) = MATK (human) (UniProt P42679)
ROCK1 (human) = ROCK1 (human) (UniProt Q13464)
Chain of ROCK1 (human) (Q13464 whole entry, looked up): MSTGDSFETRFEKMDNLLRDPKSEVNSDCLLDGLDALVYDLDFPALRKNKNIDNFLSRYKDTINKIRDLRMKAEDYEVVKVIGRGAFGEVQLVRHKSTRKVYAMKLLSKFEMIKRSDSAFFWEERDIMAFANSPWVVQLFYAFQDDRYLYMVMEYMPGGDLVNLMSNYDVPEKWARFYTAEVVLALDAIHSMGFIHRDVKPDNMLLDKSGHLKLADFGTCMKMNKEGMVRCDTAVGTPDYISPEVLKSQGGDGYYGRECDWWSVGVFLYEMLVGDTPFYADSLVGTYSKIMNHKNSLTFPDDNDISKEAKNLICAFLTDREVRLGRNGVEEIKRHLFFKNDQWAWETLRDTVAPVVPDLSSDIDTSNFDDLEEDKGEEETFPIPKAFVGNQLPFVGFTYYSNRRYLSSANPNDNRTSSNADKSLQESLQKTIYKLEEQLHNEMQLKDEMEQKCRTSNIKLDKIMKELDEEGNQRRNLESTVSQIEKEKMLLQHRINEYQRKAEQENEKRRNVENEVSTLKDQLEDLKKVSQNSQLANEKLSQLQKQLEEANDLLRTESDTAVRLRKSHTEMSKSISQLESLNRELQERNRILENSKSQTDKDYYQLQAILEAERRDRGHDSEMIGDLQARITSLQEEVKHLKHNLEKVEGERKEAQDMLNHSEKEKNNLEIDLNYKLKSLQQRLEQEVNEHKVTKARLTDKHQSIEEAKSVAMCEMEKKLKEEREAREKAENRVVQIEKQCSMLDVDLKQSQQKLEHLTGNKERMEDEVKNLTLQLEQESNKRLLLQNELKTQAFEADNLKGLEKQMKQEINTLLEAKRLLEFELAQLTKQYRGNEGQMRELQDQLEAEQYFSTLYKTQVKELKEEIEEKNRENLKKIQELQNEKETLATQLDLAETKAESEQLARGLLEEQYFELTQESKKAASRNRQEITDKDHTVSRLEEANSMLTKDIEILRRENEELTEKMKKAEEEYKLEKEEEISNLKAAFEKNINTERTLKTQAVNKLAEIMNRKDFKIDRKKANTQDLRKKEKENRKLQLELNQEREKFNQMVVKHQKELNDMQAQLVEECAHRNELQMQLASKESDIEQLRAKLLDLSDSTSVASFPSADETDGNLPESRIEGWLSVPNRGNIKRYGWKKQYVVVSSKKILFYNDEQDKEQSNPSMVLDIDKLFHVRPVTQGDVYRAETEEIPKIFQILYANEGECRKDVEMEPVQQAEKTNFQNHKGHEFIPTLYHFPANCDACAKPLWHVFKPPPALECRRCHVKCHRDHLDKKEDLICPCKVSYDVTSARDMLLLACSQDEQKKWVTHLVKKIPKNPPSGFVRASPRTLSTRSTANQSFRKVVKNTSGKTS

PDGFRA (human) = PDGFRA (human) (UniProt P16234)
Chain of PDGFRA (human) (P16234 whole entry, looked up): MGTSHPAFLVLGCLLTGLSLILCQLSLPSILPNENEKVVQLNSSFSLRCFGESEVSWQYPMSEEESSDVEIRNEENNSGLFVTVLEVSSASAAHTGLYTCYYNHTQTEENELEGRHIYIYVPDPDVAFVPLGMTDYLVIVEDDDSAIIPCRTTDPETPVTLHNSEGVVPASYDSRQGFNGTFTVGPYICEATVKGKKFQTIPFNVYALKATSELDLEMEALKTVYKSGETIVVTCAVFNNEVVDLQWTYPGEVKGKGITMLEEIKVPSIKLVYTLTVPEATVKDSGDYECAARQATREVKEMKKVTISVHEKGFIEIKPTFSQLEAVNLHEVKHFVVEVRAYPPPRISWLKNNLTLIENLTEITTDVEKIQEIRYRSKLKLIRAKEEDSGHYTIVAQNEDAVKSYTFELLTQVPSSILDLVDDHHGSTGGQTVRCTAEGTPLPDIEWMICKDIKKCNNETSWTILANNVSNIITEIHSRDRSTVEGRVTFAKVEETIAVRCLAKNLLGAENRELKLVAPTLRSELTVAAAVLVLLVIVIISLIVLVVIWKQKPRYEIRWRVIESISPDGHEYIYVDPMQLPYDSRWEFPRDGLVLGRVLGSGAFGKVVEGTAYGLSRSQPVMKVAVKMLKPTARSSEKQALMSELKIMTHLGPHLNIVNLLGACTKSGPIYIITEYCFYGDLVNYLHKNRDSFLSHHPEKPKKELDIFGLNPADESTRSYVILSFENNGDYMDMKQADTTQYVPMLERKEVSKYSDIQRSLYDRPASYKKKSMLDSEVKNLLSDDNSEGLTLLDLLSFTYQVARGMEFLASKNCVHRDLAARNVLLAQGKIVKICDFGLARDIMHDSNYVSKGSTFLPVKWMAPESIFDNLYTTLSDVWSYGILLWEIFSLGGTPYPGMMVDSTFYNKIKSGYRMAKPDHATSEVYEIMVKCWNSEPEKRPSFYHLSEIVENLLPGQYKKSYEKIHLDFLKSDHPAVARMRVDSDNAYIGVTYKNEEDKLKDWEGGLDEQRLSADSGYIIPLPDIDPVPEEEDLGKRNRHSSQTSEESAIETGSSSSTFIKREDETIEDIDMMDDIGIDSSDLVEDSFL

CDC42BPB (human) = CDC42BPB (human) (UniProt Q9Y5S2)
ERN1 (human) = ERN1 (human) (UniProt O75460)
CDK8 (human) = CDK8 (human) (UniProt P49336)
[3] = tested on: PIK3CA (human), P42336 [E542K]
CAMK1D (human) = CAMK1D (human) (UniProt Q8IU85)
CLK3 (human) = CLK3 (human) (UniProt P49761)
ROCK2 (human) = ROCK2 (human) (UniProt O75116)
WEE2 (human) = WEE2 (human) (UniProt P0C1S8)
MAPK13 (human) = MAPK13 (human) (UniProt O15264)
Chain of MAPK13 (human) (O15264 whole entry, looked up): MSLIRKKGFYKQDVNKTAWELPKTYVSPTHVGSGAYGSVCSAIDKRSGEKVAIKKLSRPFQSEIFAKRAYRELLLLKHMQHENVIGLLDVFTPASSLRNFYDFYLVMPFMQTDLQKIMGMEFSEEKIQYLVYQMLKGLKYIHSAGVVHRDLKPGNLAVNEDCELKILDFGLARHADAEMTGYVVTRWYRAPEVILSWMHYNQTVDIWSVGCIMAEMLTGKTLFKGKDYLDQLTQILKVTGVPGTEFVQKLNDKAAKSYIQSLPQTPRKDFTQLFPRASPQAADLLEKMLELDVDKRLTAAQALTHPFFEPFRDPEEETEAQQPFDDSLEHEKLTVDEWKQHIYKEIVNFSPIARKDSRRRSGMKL

MAPK6 (human) = MAPK6 (human) (UniProt Q16659)
MKNK1 (human) = MKNK1 (human) (UniProt Q9BUB5)
MAP2K4 (human) = MAP2K4 (human) (UniProt P45985)
STK33 (human) = STK33 (human) (UniProt Q9BYT3)
MAPKAPK5 (human) = MAPKAPK5 (human) (UniProt Q8IW41)
[4] = tested on: MET (human), P08581 [M1250T]
SRMS (human) = SRMS (human) (UniProt Q9H3Y6)
GRK7 (human) = GRK7 (human) (UniProt Q8WTQ7)
MAP3K13 (human) = MAP3K13 (human) (UniProt O43283)
PAK3 (human) = PAK3 (human) (UniProt O75914)
CHEK1 (human) = CHEK1 (human) (UniProt O14757)
Chain of CHEK1 (human) (O14757 whole entry, looked up): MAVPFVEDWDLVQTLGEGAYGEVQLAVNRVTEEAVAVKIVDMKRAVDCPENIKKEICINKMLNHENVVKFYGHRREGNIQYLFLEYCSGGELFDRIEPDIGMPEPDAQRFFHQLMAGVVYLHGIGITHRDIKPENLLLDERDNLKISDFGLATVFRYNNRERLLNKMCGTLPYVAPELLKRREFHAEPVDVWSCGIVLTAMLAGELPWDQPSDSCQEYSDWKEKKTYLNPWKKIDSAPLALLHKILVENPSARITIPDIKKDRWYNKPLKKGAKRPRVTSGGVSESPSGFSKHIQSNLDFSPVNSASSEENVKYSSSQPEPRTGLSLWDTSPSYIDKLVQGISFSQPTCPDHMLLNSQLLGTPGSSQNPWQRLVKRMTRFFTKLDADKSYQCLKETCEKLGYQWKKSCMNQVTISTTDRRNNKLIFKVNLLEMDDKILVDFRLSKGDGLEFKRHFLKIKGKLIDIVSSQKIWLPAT

For `O=C1Nc2cc(Br)ccc2/C1=C1/Nc2ccccc2/C1=N\O`, the kinase still bound, per cent of control (MELK (human)) was 8.7%, the kinase still bound, per cent of control (MAP2K3 (human)) was 33% and the kinase still bound, per cent of control (PAK7 (human)) was 17%. For the same compound, the kinase still bound, per cent of control (FLT3 (human)) was 0.05%, the kinase still bound, per cent of control (RPS6KA4 KD2 (human)) was 44% and the kinase still bound, per cent of control (TYRO3 (human)) was 91%. The kinase still bound, per cent of control (ERBB3 (human)) was 61%, the kinase still bound, per cent of control (STK3 (human)) was 0% and the kinase still bound, per cent of control (RPS6KA6 KD2 (human)) was 83%. It also gave a kinase still bound, per cent of control (PTK2B (human)) of 9.3%, a kinase still bound, per cent of control (PAK1 (human)) of 68% and a kinase still bound, per cent of control (STK39 (human)) of 37%. It also gave a kinase still bound, per cent of control (ADCK3 (human)) of 80%, a kinase still bound, per cent of control [1] of 1.8% and a kinase still bound, per cent of control (DMPK (human)) of 100%. For the same compound, the kinase still bound, per cent of control [2] was 4.2%, the kinase still bound, per cent of control (AXL (human)) was 0.25% and the kinase still bound, per cent of control (STK10 (human)) was 75%. The kinase still bound, per cent of control (PLK4 (human)) was 0%, the kinase still bound, per cent of control (MATK (human)) was 30% and the kinase still bound, per cent of control (ROCK1 (human)) was 61%. For the same compound, the kinase still bound, per cent of control (PDGFRA (human)) was 0%, the kinase still bound, per cent of control (CDC42BPB (human)) was 90% and the kinase still bound, per cent of control (ERN1 (human)) was 51%. It also gave a kinase still bound, per cent of control (CDK8 (human)) of 100%, a kinase still bound, per cent of control [3] of 100% and a kinase still bound, per cent of control (CAMK1D (human)) of 45%. For the same compound, the kinase still bound, per cent of control (CLK3 (human)) was 81%, the kinase still bound, per cent of control (ROCK2 (human)) was 93% and the kinase still bound, per cent of control (WEE2 (human)) was 100%. The kinase still bound, per cent of control (MAPK13 (human)) was 100%, the kinase still bound, per cent of control (MAPK6 (human)) was 100% and the kinase still bound, per cent of control (MKNK1 (human)) was 51%. For the same compound, the kinase still bound, per cent of control (MAP2K4 (human)) was 67%, the kinase still bound, per cent of control (STK33 (human)) was 11% and the kinase still bound, per cent of control (MAPKAPK5 (human)) was 100%. For the same compound, the kinase still bound, per cent of control [4] was 87%, the kinase still bound, per cent of control (SRMS (human)) was 13% and the kinase still bound, per cent of control (GRK7 (human)) was 58%. It also gave a kinase still bound, per cent of control (MAP3K13 (human)) of 54%, a kinase still bound, per cent of control (PAK3 (human)) of 7.7% and a kinase still bound, per cent of control (CHEK1 (human)) of 32%.
`Cn1cc(C2=C(c3ccc(Cl)cc3Cl)C(=O)NC2=O)c2ccccc21` showed a kinase still bound, per cent of control (MELK (human)) of 100%, a kinase still bound, per cent of control (MAP2K3 (human)) of 86% and a kinase still bound, per cent of control (PAK7 (human)) of 75%. The kinase still bound, per cent of control (FLT3 (human)) was 93%, the kinase still bound, per cent of control (RPS6KA4 KD2 (human)) was 96% and the kinase still bound, per cent of control (TYRO3 (human)) was 100%. It also gave a kinase still bound, per cent of control (ERBB3 (human)) of 57%, a kinase still bound, per cent of control (STK3 (human)) of 9.9% and a kinase still bound, per cent of control (RPS6KA6 KD2 (human)) of 55%. It also gave a kinase still bound, per cent of control (PTK2B (human)) of 94%, a kinase still bound, per cent of control (PAK1 (human)) of 80% and a kinase still bound, per cent of control (STK39 (human)) of 100%. The kinase still bound, per cent of control (ADCK3 (human)) was 100%, the kinase still bound, per cent of control [1] was 32% and the kinase still bound, per cent of control (DMPK (human)) was 98%. For the same compound, the kinase still bound, per cent of control [2] was 100%, the kinase still bound, per cent of control (AXL (human)) was 100% and the kinase still bound, per cent of control (STK10 (human)) was 97%. It also gave a kinase still bound, per cent of control (PLK4 (human)) of 14%, a kinase still bound, per cent of control (MATK (human)) of 75% and a kinase still bound, per cent of control (ROCK1 (human)) of 68%. For the same compound, the kinase still bound, per cent of control (PDGFRA (human)) was 100%, the kinase still bound, per cent of control (CDC42BPB (human)) was 97% and the kinase still bound, per cent of control (ERN1 (human)) was 100%. The kinase still bound, per cent of control (CDK8 (human)) was 100%, the kinase still bound, per cent of control [3] was 100% and the kinase still bound, per cent of control (CAMK1D (human)) was 76%. It also gave a kinase still bound, per cent of control (CLK3 (human)) of 1.4%, a kinase still bound, per cent of control (ROCK2 (human)) of 100% and a kinase still bound, per cent of control (WEE2 (human)) of 100%. The kinase still bound, per cent of control (MAPK13 (human)) was 100%, the kinase still bound, per cent of control (MAPK6 (human)) was 100% and the kinase still bound, per cent of control (MKNK1 (human)) was 84%. The kinase still bound, per cent of control (MAP2K4 (human)) was 82%, the kinase still bound, per cent of control (STK33 (human)) was 100% and the kinase still bound, per cent of control (MAPKAPK5 (human)) was 100%. The kinase still bound, per cent of control [4] was 73%, the kinase still bound, per cent of control (SRMS (human)) was 86% and the kinase still bound, per cent of control (GRK7 (human)) was 51%. It also gave a kinase still bound, per cent of control (MAP3K13 (human)) of 84%, a kinase still bound, per cent of control (PAK3 (human)) of 86% and a kinase still bound, per cent of control (CHEK1 (human)) of 94%.

— the kinase profiling compilation of Christmann-Franck et al. (2016)
